Data published in the supplement of paper PMC10307832.

Legend:
Assay in all cases: relative viability (nuclei count vs DMSO), 5 days (fraction); higher = more cells survive
Tipifarnib + Vorinostat = compound: Cn1cncc1[C@@](N)(c1ccc(Cl)cc1)c1ccc2c(c1)c(-c1cccc(Cl)c1)cc(=O)n2C [Tipifarnib] + O=C(CCCCCCC(=O)Nc1ccccc1)NO [Vorinostat] (partner 1 µM)
Method in brief: (§1)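 Each reported value is a median over duplicate plates. It expresses relative viability: treated-well nuclei count divided by vehicle-well nuclei count. Lung cancer cell lines in 1536-well plates were dosed by pin tool a day after seeding, alone with one drug or with a fixed anchor-drug dose plus five library-drug doses (not always all listed) in √10 steps, and nuclei were counted after 5 days.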

Tipifarnib + Palbociclib = compound: Cn1cncc1[C@@](N)(c1ccc(Cl)cc1)c1ccc2c(c1)c(-c1cccc(Cl)c1)cc(=O)n2C [Tipifarnib] + CC(=O)c1c(C)c2cnc(Nc3ccc(N4CCNCC4)cn3)nc2n(C2CCCC2)c1=O [Palbociclib] (partner 0.5 µM)
Method in brief: as §1

Tipifarnib + AZD7762 = compound: Cn1cncc1[C@@](N)(c1ccc(Cl)cc1)c1ccc2c(c1)c(-c1cccc(Cl)c1)cc(=O)n2C [Tipifarnib] + NC(=O)Nc1cc(-c2cccc(F)c2)sc1C(=O)N[C@H]1CCCNC1 [AZD7762] (partner 0.2 µM)
Method in brief: as §1

Tipifarnib + Crizotinib = compound: Cn1cncc1[C@@](N)(c1ccc(Cl)cc1)c1ccc2c(c1)c(-c1cccc(Cl)c1)cc(=O)n2C [Tipifarnib] + C[C@@H](Oc1cc(-c2cnn(C3CCNCC3)c2)cnc1N)c1c(Cl)ccc(F)c1Cl [Crizotinib] (partner 1 µM)
Method in brief: as §1

201T
relative viability (Tipifarnib + Vorinostat; first compound 0.01 µM): 1.04
relative viability (Tipifarnib + Vorinostat; first compound 0.03162 µM): 0.965
relative viability (Tipifarnib + Vorinostat; first compound 0.1 µM): 0.908
relative viability (Tipifarnib + Vorinostat; first compound 0.3162 µM): 0.839
relative viability (Tipifarnib + Vorinostat; first compound 1 µM): 0.583
relative viability (Tipifarnib + Palbociclib; first compound 0.01 µM): 0.352
relative viability (Tipifarnib + Palbociclib; first compound 0.03162 µM): 0.373
relative viability (Tipifarnib + Palbociclib; first compound 0.1 µM): 0.357
relative viability (Tipifarnib + Palbociclib; first compound 0.3162 µM): 0.341
relative viability (Tipifarnib + Palbociclib; first compound 1 µM): 0.354
relative viability (Tipifarnib + AZD7762; first compound 0.01 µM): 0.679
relative viability (Tipifarnib + AZD7762; first compound 0.03162 µM): 0.628
relative viability (Tipifarnib + AZD7762; first compound 0.1 µM): 0.573
relative viability (Tipifarnib + AZD7762; first compound 0.3162 µM): 0.546
relative viability (Tipifarnib + AZD7762; first compound 1 µM): 0.449
relative viability (Tipifarnib + Crizotinib; first compound 0.01 µM): 1.05
relative viability (Tipifarnib + Crizotinib; first compound 0.03162 µM): 0.909
relative viability (Tipifarnib + Crizotinib; first compound 0.1 µM): 0.987
relative viability (Tipifarnib + Crizotinib; first compound 0.3162 µM): 0.954
relative viability (Tipifarnib + Crizotinib; first compound 1 µM): 0.885

A-427
relative viability (Tipifarnib + Vorinostat; first compound 0.01 µM): 0.839
relative viability (Tipifarnib + Vorinostat; first compound 0.03162 µM): 0.849
relative viability (Tipifarnib + Vorinostat; first compound 0.1 µM): 0.621
relative viability (Tipifarnib + Vorinostat; first compound 0.3162 µM): 0.8
relative viability (Tipifarnib + Vorinostat; first compound 1 µM): 0.655
relative viability (Tipifarnib + Palbociclib; first compound 0.01 µM): 0.527
relative viability (Tipifarnib + Palbociclib; first compound 0.03162 µM): 0.535
relative viability (Tipifarnib + Palbociclib; first compound 0.1 µM): 0.477
relative viability (Tipifarnib + Palbociclib; first compound 0.3162 µM): 0.448
relative viability (Tipifarnib + Palbociclib; first compound 1 µM): 0.466
relative viability (Tipifarnib + AZD7762; first compound 0.01 µM): 0.837
relative viability (Tipifarnib + AZD7762; first compound 0.03162 µM): 0.79
relative viability (Tipifarnib + AZD7762; first compound 0.1 µM): 0.553
relative viability (Tipifarnib + AZD7762; first compound 0.3162 µM): 0.599
relative viability (Tipifarnib + AZD7762; first compound 1 µM): 0.601
relative viability (Tipifarnib + Crizotinib; first compound 0.01 µM): 1.01
relative viability (Tipifarnib + Crizotinib; first compound 0.03162 µM): 0.866
relative viability (Tipifarnib + Crizotinib; first compound 0.1 µM): 0.782
relative viability (Tipifarnib + Crizotinib; first compound 0.3162 µM): 0.732
relative viability (Tipifarnib + Crizotinib; first compound 1 µM): 0.844

ABC-1
relative viability (Tipifarnib + Vorinostat; first compound 0.01 µM): 1.16
relative viability (Tipifarnib + Vorinostat; first compound 0.03162 µM): 0.481
relative viability (Tipifarnib + Vorinostat; first compound 0.1 µM): 0.781
relative viability (Tipifarnib + Vorinostat; first compound 0.3162 µM): 0.593
relative viability (Tipifarnib + Vorinostat; first compound 1 µM): 0.613
relative viability (Tipifarnib + Palbociclib; first compound 0.01 µM): 0.733
relative viability (Tipifarnib + Palbociclib; first compound 0.03162 µM): 0.689
relative viability (Tipifarnib + Palbociclib; first compound 0.1 µM): 0.694
relative viability (Tipifarnib + Palbociclib; first compound 0.3162 µM): 0.639
relative viability (Tipifarnib + Palbociclib; first compound 1 µM): 0.604
relative viability (Tipifarnib + AZD7762; first compound 0.01 µM): 1.04
relative viability (Tipifarnib + AZD7762; first compound 0.3162 µM): 0.558
relative viability (Tipifarnib + AZD7762; first compound 1 µM): 0.54
relative viability (Tipifarnib + Crizotinib; first compound 0.01 µM): 1.05
relative viability (Tipifarnib + Crizotinib; first compound 0.1 µM): 0.609
relative viability (Tipifarnib + Crizotinib; first compound 0.3162 µM): 0.676
relative viability (Tipifarnib + Crizotinib; first compound 1 µM): 0.452

BEN
relative viability (Tipifarnib + Vorinostat; first compound 0.01 µM): 0.597
relative viability (Tipifarnib + Vorinostat; first compound 0.03162 µM): 0.488
relative viability (Tipifarnib + Vorinostat; first compound 0.1 µM): 0.538
relative viability (Tipifarnib + Vorinostat; first compound 0.3162 µM): 0.464
relative viability (Tipifarnib + Vorinostat; first compound 1 µM): 0.422
relative viability (Tipifarnib + Palbociclib; first compound 0.01 µM): 0.587
relative viability (Tipifarnib + Palbociclib; first compound 0.03162 µM): 0.475
relative viability (Tipifarnib + Palbociclib; first compound 0.1 µM): 0.488
relative viability (Tipifarnib + Palbociclib; first compound 0.3162 µM): 0.455
relative viability (Tipifarnib + Palbociclib; first compound 1 µM): 0.451
relative viability (Tipifarnib + AZD7762; first compound 0.01 µM): 0.738
relative viability (Tipifarnib + AZD7762; first compound 0.03162 µM): 0.659
relative viability (Tipifarnib + AZD7762; first compound 0.1 µM): 0.629
relative viability (Tipifarnib + AZD7762; first compound 0.3162 µM): 0.663
relative viability (Tipifarnib + AZD7762; first compound 1 µM): 0.528
relative viability (Tipifarnib + Crizotinib; first compound 0.01 µM): 0.928
relative viability (Tipifarnib + Crizotinib; first compound 0.03162 µM): 0.939
relative viability (Tipifarnib + Crizotinib; first compound 0.1 µM): 0.731
relative viability (Tipifarnib + Crizotinib; first compound 0.3162 µM): 0.684
relative viability (Tipifarnib + Crizotinib; first compound 1 µM): 0.636

CAL-12T
relative viability (Tipifarnib + Vorinostat; first compound 0.01 µM): 0.701
relative viability (Tipifarnib + Vorinostat; first compound 0.03162 µM): 0.519
relative viability (Tipifarnib + Vorinostat; first compound 0.1 µM): 0.454
relative viability (Tipifarnib + Vorinostat; first compound 0.3162 µM): 0.324
relative viability (Tipifarnib + Vorinostat; first compound 1 µM): 0.29
relative viability (Tipifarnib + Palbociclib; first compound 0.01 µM): 0.512
relative viability (Tipifarnib + Palbociclib; first compound 0.03162 µM): 0.302
relative viability (Tipifarnib + Palbociclib; first compound 0.1 µM): 0.377
relative viability (Tipifarnib + Palbociclib; first compound 0.3162 µM): 0.21
relative viability (Tipifarnib + Palbociclib; first compound 1 µM): 0.13
relative viability (Tipifarnib + AZD7762; first compound 0.01 µM): 0.635
relative viability (Tipifarnib + AZD7762; first compound 0.03162 µM): 0.549
relative viability (Tipifarnib + AZD7762; first compound 0.1 µM): 0.62
relative viability (Tipifarnib + AZD7762; first compound 0.3162 µM): 0.408
relative viability (Tipifarnib + AZD7762; first compound 1 µM): 0.425
relative viability (Tipifarnib + Crizotinib; first compound 0.01 µM): 0.567
relative viability (Tipifarnib + Crizotinib; first compound 0.03162 µM): 0.387
relative viability (Tipifarnib + Crizotinib; first compound 0.1 µM): 0.334
relative viability (Tipifarnib + Crizotinib; first compound 0.3162 µM): 0.173
relative viability (Tipifarnib + Crizotinib; first compound 1 µM): 0.228

ChaGo-K-1
relative viability (Tipifarnib + Vorinostat; first compound 0.01 µM): 0.772
relative viability (Tipifarnib + Vorinostat; first compound 0.03162 µM): 0.706
relative viability (Tipifarnib + Vorinostat; first compound 0.1 µM): 0.752
relative viability (Tipifarnib + Vorinostat; first compound 0.3162 µM): 0.691
relative viability (Tipifarnib + Vorinostat; first compound 1 µM): 0.297
relative viability (Tipifarnib + Palbociclib; first compound 0.01 µM): 0.996
relative viability (Tipifarnib + Palbociclib; first compound 0.03162 µM): 0.937
relative viability (Tipifarnib + Palbociclib; first compound 0.1 µM): 0.932
relative viability (Tipifarnib + Palbociclib; first compound 0.3162 µM): 0.885
relative viability (Tipifarnib + Palbociclib; first compound 1 µM): 0.758
relative viability (Tipifarnib + AZD7762; first compound 0.01 µM): 0.904
relative viability (Tipifarnib + AZD7762; first compound 0.03162 µM): 0.936
relative viability (Tipifarnib + AZD7762; first compound 0.1 µM): 0.931
relative viability (Tipifarnib + AZD7762; first compound 0.3162 µM): 0.745
relative viability (Tipifarnib + AZD7762; first compound 1 µM): 0.411
relative viability (Tipifarnib + Crizotinib; first compound 0.01 µM): 1.12
relative viability (Tipifarnib + Crizotinib; first compound 0.03162 µM): 1.23
relative viability (Tipifarnib + Crizotinib; first compound 0.1 µM): 0.762
relative viability (Tipifarnib + Crizotinib; first compound 0.3162 µM): 0.992
relative viability (Tipifarnib + Crizotinib; first compound 1 µM): 0.484

EKVX
relative viability (Tipifarnib + Vorinostat; first compound 0.01 µM): 0.76
relative viability (Tipifarnib + Vorinostat; first compound 0.03162 µM): 0.634
relative viability (Tipifarnib + Vorinostat; first compound 0.1 µM): 0.549
relative viability (Tipifarnib + Vorinostat; first compound 0.3162 µM): 0.439
relative viability (Tipifarnib + Vorinostat; first compound 1 µM): 0.53
relative viability (Tipifarnib + Palbociclib; first compound 0.01 µM): 0.396
relative viability (Tipifarnib + Palbociclib; first compound 0.03162 µM): 0.362
relative viability (Tipifarnib + Palbociclib; first compound 0.1 µM): 0.35
relative viability (Tipifarnib + Palbociclib; first compound 0.3162 µM): 0.281
relative viability (Tipifarnib + Palbociclib; first compound 1 µM): 0.284
relative viability (Tipifarnib + AZD7762; first compound 0.01 µM): 0.795
relative viability (Tipifarnib + AZD7762; first compound 0.03162 µM): 0.756
relative viability (Tipifarnib + AZD7762; first compound 0.1 µM): 0.607
relative viability (Tipifarnib + AZD7762; first compound 0.3162 µM): 0.537
relative viability (Tipifarnib + AZD7762; first compound 1 µM): 0.337
relative viability (Tipifarnib + Crizotinib; first compound 0.01 µM): 0.932
relative viability (Tipifarnib + Crizotinib; first compound 0.03162 µM): 0.936
relative viability (Tipifarnib + Crizotinib; first compound 0.1 µM): 0.733
relative viability (Tipifarnib + Crizotinib; first compound 0.3162 µM): 0.618
relative viability (Tipifarnib + Crizotinib; first compound 1 µM): 0.581

EMC-BAC-2
relative viability (Tipifarnib + Vorinostat; first compound 0.01 µM): 0.355
relative viability (Tipifarnib + Vorinostat; first compound 0.03162 µM): 0.386
relative viability (Tipifarnib + Vorinostat; first compound 0.1 µM): 0.233
relative viability (Tipifarnib + Vorinostat; first compound 0.3162 µM): 0.338
relative viability (Tipifarnib + Vorinostat; first compound 1 µM): 0.191
relative viability (Tipifarnib + Palbociclib; first compound 0.01 µM): 0.501
relative viability (Tipifarnib + Palbociclib; first compound 0.03162 µM): 0.469
relative viability (Tipifarnib + Palbociclib; first compound 0.1 µM): 0.494
relative viability (Tipifarnib + Palbociclib; first compound 0.3162 µM): 0.463
relative viability (Tipifarnib + Palbociclib; first compound 1 µM): 0.465
relative viability (Tipifarnib + AZD7762; first compound 0.01 µM): 0.981
relative viability (Tipifarnib + AZD7762; first compound 0.03162 µM): 0.952
relative viability (Tipifarnib + AZD7762; first compound 0.1 µM): 0.944
relative viability (Tipifarnib + AZD7762; first compound 0.3162 µM): 0.822
relative viability (Tipifarnib + AZD7762; first compound 1 µM): 0.536
relative viability (Tipifarnib + Crizotinib; first compound 0.01 µM): 0.737
relative viability (Tipifarnib + Crizotinib; first compound 0.03162 µM): 0.621
relative viability (Tipifarnib + Crizotinib; first compound 0.1 µM): 0.659
relative viability (Tipifarnib + Crizotinib; first compound 0.3162 µM): 0.534
relative viability (Tipifarnib + Crizotinib; first compound 1 µM): 0.526
